Experimental data taken from article PMC12668308, “A Novel Antimalarial Agent that Inhibits Protein Synthesis in Plasmodium falciparum” (Angewandte Chemie (International Ed. in English), 2025).
Several values for one entry are separate records, joined by “and”; a condition that tells them apart may be missing. Equal entries are not always repeated.

Tests used:
Cytotoxicity assay (MTT) = assay type: cell-based, human; details: human, HepG2 cells; HepG2, 48 h, MTT; mean ± s.d.
Description: (§1) HepG2 (2x10^4 cells per well) were seeded in 96-well flat-bottom culture plates in 100 µL of culture medium (DMEM containing 10% fetal calve serum and 1% penicillin-streptomycin). After 24 hours, the medium was replaced by fresh medium containing test compounds in a final DMSO concentration of 1%. […] Epirubicin and doxorubicin were used as positive controls in serial dilutions starting from 10 µM, and rifampicin was used as a negative control (at 100 µM). Cell viability was determined 48 h after treatment with compounds by adding 0.1 volumes of 3-(4,5-dimethylthiazol-2-yl)-2,5-diphenyltetrazolium bromide (MTT) solution (5 mg/mL sterile PBS) (Sigma, St. Louis, MO) to the wells. After incubating the cells for 30 min at 37 °C (atmosphere containing 5% CO2), medium was removed and MTT crystals were dissolved in 75 µL of a solution containing 10% SDS and 0.5% acetic acid in DMSO. The optical density (OD) of the samples was measured photometrically at 570 nm in a PHERAstar Omega plate reader (BMG labtech, Ortenberg, Germany). Percent viability was calculated by normalizing sample ODs to those of the DMSO controls. Each compound was tested in at least two independent experiments and CC50 values were determined using the nonlinear regression function of GraphPad Prism 10 (GraphPad Software, San Diego, CA, USA).

HepG2 = assay: Cytotoxicity assay (MTT); assay type: cell-based, human
Description: as §1

[1] = system: laboratory-selected Dd2 strains; assay: [3H]-hypoxanthine incorporation assay; assay type: cell-based; details: Plasmodium falciparum, DD2, read-out: IC50 against the laboratory-selected Dd2 strains
Description: To determine potential cross resistance against compound 31 in parasites harboring mutations that confer resistance to current antimalarials, its activity was assessed against drug‐resistant field isolates as previously described. […] A cross‐resistance was considered when there was more than a 10‐fold shift in the IC50 relative to the NF54 strain. […] Because of this, 31 was tested against laboratory‐selected Dd2 strains, which contained additional resistance variants to preclinical and clinical drug candidates.
P. falciparum asexual blood stage parasites were cultured in human red blood cells (RBC, Blutspende SRK, Zurich) at a hematocrit of 5% in RPMI 1640 medium. […] Parasites were harvested on a glass-fiber filter with a Microbeta FilterMate cell harvester (Perkin Elmer, Waltham, USA) and radioactivity was counted using a MicroBeta2 liquid scintillation counter (Perkin Elmer, Waltham, US). The results were recorded, processed by subtraction of the mean background signal obtained from the uninfected RBC controls and expressed as percentage of untreated controls. The fifty percent inhibitory concentration (IC50) was calculated by using nonlinear, four parameter (variable slope) curve fitting as described ^[33^] after importing into GraphPad Prism (version 8.3.0).

Dd2b2^pfmdr1 K1065N = assay type: cell-based, Plasmodium falciparum; details: Dd2b2^pfmdr1 K1065N vs Dd2b2^WT
Description: ^[a] 72-h [^3H] hypoxanthhine incorporation assay; Data is expressed as mean±s.d. The assay was performed in three independent biological experiments, each in biological duplicates
(§2) P. falciparum asexual blood stage parasites were cultured in human red blood cells (RBC, Blutspende SRK, Zurich) at a hematocrit of 5% in RPMI 1640 medium. The RPMI 1640 medium (ThermoFisher Scientific #51800−043) was supplemented with the following: 24 mM NaHCO3 (pH 7.3, Sigma-Aldrich #31437−500G-R), 25 mM Hepes (Sigma-Aldrich #H4034−500G), 0.36 mM hypoxanthine (Sigma-Aldrich # H9377−25G), 100 µg mL^-1 neomycin (Sigma-Aldrich #N6386−100G) and 0.5% Albumax II (Thermo Fisher #11021−045). Additionally, 2 mM choline chloride (279 mg/L, Sigma-Aldrich #C7527−100G) was added to the culture to block the induction of sexual commitment as described. ^[31^] The RPMI 1640 medium and components were dissolved in water (Milli-Q purified), stirred for at least 3 h, and then sterile filtered (0.22 μm pore size) with a bottle top filter (Corning # 431118). Parasite cultures were maintained in an atmosphere of 3% O2, 4% CO2, and 93% N2 in air-tight chambers at 37 °C. The [^3H]-hypoxanthine incorporation assay was used to test compound activity in the specific parasite lines as described.^[32^] Briefly, compounds were dissolved in DMSO (10 mM) and diluted in a hypoxanthine-free culture medium. A limiting dilution was performed over a 64-fold range (6-step twofold dilution) in a 96-well plate in duplicates. For every starting concentration, a limiting dilution was performed over a 64-fold range (6-step twofold dilution) in a 96-well plate in two biological duplicates. Parasites were added at 100 µL to each well containing the compound to obtain a final parasitemia of 0.3% and haematocrit of 1.25%. The plates were incubated for 48 h before 0.25 µCi of [^3H]-hypoxanthine was added per well for an additional 24 h. Parasites were harvested on a glass-fiber filter with a Microbeta FilterMate cell harvester (Perkin Elmer, Waltham, USA) and radioactivity was counted using a MicroBeta2 liquid scintillation counter (Perkin Elmer, Waltham, US). The results were recorded, processed by subtraction of the mean background signal obtained from the uninfected RBC controls and expressed as percentage of untreated controls. The fifty percent inhibitory concentration (IC50) was calculated by using nonlinear, four parameter (variable slope) curve fitting as described ^[33^] after importing into GraphPad Prism (version 8.3.0).

3D7^WT = assay: [3H]-hypoxanthine incorporation assay; assay type: cell-based; details: Plasmodium falciparum, 3D7; 72-h assay; mean±s.d.; read-out: 3D7^WT IC50
Description: (§3) ^[a] 72-h [^3H] hypoxanthhine incorporation assay; Data is expressed as mean±s.d.. The assay was performed in three independent biological experiments, each in biological duplicates.
as §2

3D7^Cas9 pfmdr1 G182S = assay type: cell-based, Plasmodium falciparum; details: 3D7^Cas9 pfmdr1 G182S vs 3D7^WT
Description: as §3, §2
The P. falciparum 3D7 wild type parasites in the ring stage were transfected as described.^[20] Infected RBCs collected from a 5 ml culture of synchronous ring stage parasites (5-6% parasitemia at ) were added to 250 µl of packed RBCs and were co-transfected with 50µg of Cas9 and 50 µg of donor plasmids using a Bio-Rad Gene Pulser Xcell Electroporation System (single exponential pulse, 310 V, 250 µF). 24 hours post-transfection, 5 nM WR99210 (MedChemExpress #HY-116387) was added to the culture medium for six days to select for gene-edited parasites, and henceforth parasites were maintained in normal culture medium until a stably propagating parasite population was obtained. After ~4 weeks post-transfection, stably propagating parasite population were obtained. The transgenic parasite line (3D7^pfmdr1 G182S) was cloned out using an established plaque assays via limiting dilution.^[35^] […]

For `CN1CCN(Cc2ccc(O)c(NC(=O)c3cccc(Oc4cc(C(F)(F)F)ccn4)c3)c2)CC1` [Compound 31, N-(2-hydroxy-5-((4-methylpiperazin-1-yl)methyl)phenyl)-3-((4-(trifluoromethyl)pyridin-2-yl)oxy)benzamide], the CC50 at 48 h (Cytotoxicity assay (MTT)) was 37000 nM, the “selectivity index (CC50/IC50)” value (HepG2; HepG2 CC50 / P. falciparum IC50) was 9,487 and the inhibition at 100 µM (HepG2; Homo sapiens, HepG2, 100 µM, 48 h, MTT) was 87 ± 5%. The IC50 [1] was 2.4 to 6.6 nM, the “IC50 fold shift relative to parental clone” value (Dd2b2^pfmdr1 K1065N) was 20.2 and the IC50 (3D7^WT) was 2.4 ± 0.3 nM. For the same molecule, the “IC50 fold shift relative to 3D7^WT strain” value (3D7^Cas9 pfmdr1 G182S) was 7 and 6.6.
